17 molecules from patent US12649733B2, “3,6-diamino-pyridazin-3-yl derivatives, pharmaceutical compositions containing them and their uses as pro-apoptotic agents” (LES LABORATOIRES SERVIER, priority 2019, dated 2026) can be followed below.

The subject of one assay is MOLT-4 cells. The experiment in a line: MOLT-4 cell viability, MTT assay. The assay is classed as cell-based. As to conditions: Homo sapiens, MOLT-4, 48 h, 48 h exposure. Put shortly:
(§1)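 Viability read by MTT reduction (OD 540 nm after overnight SDS/HCl lysis) after 48 h compound treatment of cells in RPMI 1640/10% FBS. Triplicates at nine concentrations, 3.16-fold apart; four-parameter curve fitting yields IC50.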
In general terms: Tetrazolium dyes change colour on reduction, which living cells bring about.

A further assay deals with BCLXL (Homo sapiens, UniProt Q07817, V10N/V9A). As to the kind of experiment: Fluorescence polarisation assay (PUMA-based probe displacement). Note: 20 nM protein, 10 nM fluorescent probe. The assay is classed as binding. How it is done: Fluorescence polarization measures the rotation of a fluorescing species in solution, the larger the molecule the more polarized the fluorescence emission.
Sequence of BCLXL (Q07817 with tags, fused parts or gaps V9A/V10N): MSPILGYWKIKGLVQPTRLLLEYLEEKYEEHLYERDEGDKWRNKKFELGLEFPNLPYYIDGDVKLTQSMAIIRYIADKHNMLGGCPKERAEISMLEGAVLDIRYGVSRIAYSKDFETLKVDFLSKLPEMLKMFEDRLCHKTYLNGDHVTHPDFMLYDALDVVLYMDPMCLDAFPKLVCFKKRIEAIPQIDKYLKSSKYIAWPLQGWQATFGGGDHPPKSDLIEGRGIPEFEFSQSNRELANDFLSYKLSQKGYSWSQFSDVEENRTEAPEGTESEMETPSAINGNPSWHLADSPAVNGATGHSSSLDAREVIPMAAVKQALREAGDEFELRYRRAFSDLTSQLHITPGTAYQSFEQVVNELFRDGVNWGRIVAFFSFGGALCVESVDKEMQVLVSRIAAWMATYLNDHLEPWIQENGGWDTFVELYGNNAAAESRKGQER
[[…]] (GST UniProtKB® primary accession number P08515 and BCLXL UniProtKB® primary accession number Q07817-1),
resulting in an increase in anisotropy. If a compound is added which competitively binds to the same site as the probe, thereby releasing it, anisotropy decreases due to the increased amount of free probe.
An 11-point serial dilution of each compound was prepared in DMSO, the final buffer conditions were 10 mM 4-(2-hydroxyethyl)-1-piperazineethanesulfonic acid [HEPES], 150 mM NaCl, 0.05% Tween 20, pH 7.4 and 5% DMSO. The final protein concentration in the assay was 20 nM with the fluorescent probe present at 10 nM. The experiments were incubated for 2 hours at 23° C. before fluorescence polarization was measured on a Biotek SynergyNeo plate reader (Excitation 485 nm, emission 525 nm, parallel and perpendicular reads). […] The KI values were determined from the IC50 values according to Cer et al, Nucleic Acids Res, 2009, Jul. 1: 37(WebServer issue): W441-W445.

In the next assay the test system is H146 cells. The experiment in a line: H146 cell viability, MTT assay. The assay is classed as cell-based. The settings on record: Homo sapiens, NCI-H146, 48 h, 48 h exposure. Put shortly: as §1

The IC50 is the concentration that inhibits the measured activity by half. Low readings indicate higher potency, high ones lower potency. In general, Ki refers to the dissociation constant of the complex between target and ligand, obtained from inhibition or displacement. As for `CN(c1ccc(Nc2nc3ccccc3s2)nn1)c1cccc(C(=O)O)n1` [Example 38, 6-({6-[(1,3-Benzothiazol-2-yl)amino]pyridazin-3-yl}(methyl)amino)pyridine-2-carboxylic acid], the IC50 with MOLT-4 cells and in the assay on H146 cells was > 15 µM each time. On BCLXL, the Ki is 250 µM.

As for `COCCN(c1cc(C)c(Nc2nc3ccccc3s2)nn1)c1nc(C(=O)O)cs1` [Example 39, 2-({6-[(1,3-Benzothiazol-2-yl)amino]-5-methylpyridazin-3-yl}(2-methoxyethyl)amino)-1,3-thiazole-4-carboxylic acid], the concentration for half-maximal inhibition (IC50) in the assay on MOLT-4 cells and with H146 cells was > 15 µM each time. Further, on BCLXL, the Ki is 0.054 µM.

Consider `Cc1cc(N(C)c2nc(C(=O)O)c(-c3cnn(CC45CC6CC(CC(C6)C4)C5)c3C)s2)nnc1Nc1nc2ccccc2s1` [Example 40, 5-{1-[(Adamantan-1-yl)methyl]-5-methyl-1H-pyrazol-4-yl}-2-({6-[(1,3-benzothiazol-2-yl)amino]-5-methylpyridazin-3-yl}(methyl)amino)-1,3-thiazole-4-carboxylic acid], for which the concentration for half-maximal inhibition (IC50) came to 1.49 µM in the assay with MOLT-4 cells and 3.8 µM with H146 cells. On BCLXL, the Ki stood at 0.02 µM.

In the case of `Cc1cc(N(CCN2CCOCC2)c2nc(C(=O)O)cs2)nnc1Nc1nc2ccccc2s1` [Example 41, 2-({6-[(1,3-Benzothiazol-2-yl)amino]-5-methylpyridazin-3-yl}[2-(morpholin-4-yl)ethyl]amino)-1,3-thiazole-4-carboxylic acid], the IC50 in the assay with MOLT-4 cells is > 13 µM; with H146 cells, ≥ 9.76 µM. The Ki at BCLXL turned out to be 0.037 µM.

Consider `COCCCC1(Cn2ncc(-c3sc(N(C)c4cc(C)c(Nc5nc6ccccc6s5)nn4)nc3C(=O)O)c2C)CCCCC1` [Example 42, 2-({6-[(1,3-Benzothiazol-2-yl)amino]-5-methylpyridazin-3-yl}(methyl)amino)-5-(1-{[1-(3-methoxypropyl)cyclohexyl]methyl}-5-methyl-1H-pyrazol-4-yl)-1,3-thiazole-4-carboxylic acid], for which the IC50 was found to be 1.02 µM with MOLT-4 cells and 2.04 µM in the assay on H146 cells. Also, on BCLXL, the Ki came out at 0.0047 µM.

Turning to `Cc1cc(N(CCCN2CCOCC2)c2nc(C(=O)O)cs2)nnc1Nc1nc2ccccc2s1` [Example 44, 2-({6-[(1,3-Benzothiazol-2-yl)amino]-5-methylpyridazin-3-yl}[3-(morpholin-4-yl)propyl]amino)-1,3-thiazole-4-carboxylic acid], the IC50 in the assay on MOLT-4 cells and in the assay with H146 cells was > 15 µM each time. On BCLXL, the Ki amounted to 0.069 µM.

For `CCCN(c1cc(C)c(Nc2nc3ccccc3s2)nn1)c1nc(C(=O)O)cs1` [Example 45, 2-({6-[(1,3-Benzothiazol-2-yl)amino]-5-methylpyridazin-3-yl}(propyl)amino)-1,3-thiazole-4-carboxylic acid], the IC50 in the assay with MOLT-4 cells was 11.7 µM; in the assay with H146 cells, ≥ 11.8 µM. Also, the Ki at BCLXL amounted to 0.014 µM.

On to `CCN(CC)CCCN(c1cc(C)c(Nc2nc3ccccc3s2)nn1)c1nc(C(=O)O)cs1` [Example 46, 2-({6-[(1,3-Benzothiazol-2-yl)amino]-5-methylpyridazin-3-yl}[3-(diethylamino)propyl]amino)-1,3-thiazole-4-carboxylic acid], for which the IC50 in the assay on MOLT-4 cells and in the assay with H146 cells was > 15 µM throughout. Moreover, the Ki at BCLXL was 0.19 µM.

Turning to `COCCCN(c1cc(C)c(Nc2nc3ccccc3s2)nn1)c1nc(C(=O)O)cs1` [Example 47, 2-({6-[(1,3-Benzothiazol-2-yl)amino]-5-methylpyridazin-3-yl}(3-methoxypropyl)amino)-1,3-thiazole-4-carboxylic acid], the IC50 in the assay with MOLT-4 cells is > 15 µM; in the assay on H146 cells, ≥ 9.62 µM. Besides, the Ki at BCLXL worked out at 0.023 µM.

`Cc1cc(N(CCCO)c2nc(C(=O)O)cs2)nnc1Nc1nc2ccccc2s1` [Example 49, 2-({6-[(1,3-Benzothiazol-2-yl)amino]-5-methylpyridazin-3-yl}(3-hydroxypropyl)amino)-1,3-thiazole-4-carboxylic acid]: the half-inhibitory concentration (IC50) with MOLT-4 cells and in the assay on H146 cells was > 15 µM each time. The Ki at BCLXL was 0.0081 µM.

With `COCCCN(c1cc(C)c(Nc2nc3ccccc3s2)nn1)c1nc(C(=O)O)c(-c2cnn(CC34CC5CC(CC(C5)C3)C4)c2C)s1` [Example 52, 5-{1-[(Adamantan-1-yl)methyl]-5-methyl-1H-pyrazol-4-yl}-2-({6-[(1,3-benzothiazol-2-yl)amino]-5-methylpyridazin-3-yl}(3-methoxypropyl)amino)-1,3-thiazole-4-carboxylic acid], the IC50 in the assay on MOLT-4 cells was determined as 8.36 µM; with H146 cells it was 13 µM. Besides, the inhibition constant (Ki) at BCLXL came out at 0.09 µM.

As to `Cc1c(-c2sc(N(C)c3cc(C4CC4)c(Nc4nc5ccccc5s4)nn3)nc2C(=O)O)cnn1CC12CC3CC(CC(C3)C1)C2` [Example 53, 5-{1-[(Adamantan-1-yl)methyl]-5-methyl-1H-pyrazol-4-yl}-2-({6-[(1,3-benzothiazol-2-yl)amino]-5-cyclopropylpyridazin-3-yl}(methyl)amino)-1,3-thiazole-4-carboxylic acid], the IC50 came to 0.701 µM in the assay on MOLT-4 cells and 1.65 µM with H146 cells. Also, on BCLXL, the inhibition constant (Ki) is 0.015 µM.

Take `Cc1cc(N(C)c2ccc(C(=O)O)s2)nnc1Nc1nc2ccccc2s1` [Example 56, 5-({6-[(1,3-Benzothiazol-2-yl)amino]-5-methylpyridazin-3-yl}(methyl)amino)thiophene-2-carboxylic acid]: the IC50 in the assay on MOLT-4 cells and with H146 cells was > 15 µM each time. The Ki at BCLXL was > 10 µM.

As for `Cc1c(Nc2nc(C(=O)O)cs2)nnc(Nc2nc3cc(F)c(F)cc3s2)c1C` [Example 57, 2-[[6-[(5,6-Difluoro-1,3-benzothiazol-2-yl)amino]-4,5-dimethyl-pyridazin-3-yl]amino]thiazole-4-carboxylic acid], the half-maximal inhibitory concentration (IC50) with MOLT-4 cells was > 15 µM; in the assay with H146 cells, 13.4 µM. In addition, at BCLXL, the inhibition constant Ki turned out to be 0.35 µM.

On to `Cc1c(Nc2nc(C(=O)O)cs2)nnc(Nc2nc3cc(F)ccc3s2)c1C` [Example 58, 2-[[6-[(5-Fluoro-1,3-benzothiazol-2-yl)amino]-4,5-dimethyl-pyridazin-3-yl]amino]thiazole-4-carboxylic acid], for which the concentration for half-maximal inhibition (IC50) in the assay on MOLT-4 cells and in the assay with H146 cells was > 15 µM throughout. In addition, the inhibition constant Ki at BCLXL amounted to 0.049 µM.

Take `Cc1cc(N(C)c2nc(C(=O)O)c(CCCOC3CCCCC3)s2)nnc1Nc1nc2ccccc2s1` [Example 61, 2-({6-[(1,3-Benzothiazol-2-yl)amino]-5-methylpyridazin-3-yl}(methyl)amino)-5-[3-(cyclohexyloxy)propyl]-1,3-thiazole-4-carboxylic acid]: the IC50 came out at 0.192 µM with MOLT-4 cells and 0.593 µM in the assay with H146 cells. In addition, the Ki at BCLXL was < 0.001 µM.

Take `COCCCc1sc(N(CCCOC)c2cc(C)c(Nc3nc4ccccc4s3)nn2)nc1C(=O)O` [Example 64, 2-({6-[(1,3-Benzothiazol-2-yl)amino]-5-methylpyridazin-3-yl}(3-methoxypropyl)amino)-5-(3-methoxypropyl)-1,3-thiazole-4-carboxylic acid]: the IC50 with MOLT-4 cells is 3.59 µM; in the assay on H146 cells, 0.0224 µM. Also, on BCLXL, the inhibition constant (Ki) came to 0.031 µM.
